Experimental data published in patent US20150037341A1, “Diagnostic and Therapeutic Method” (Plysackaridforskning i Uppsala AB, priority 2011, published 2015).

What was measured:
[1] = Nitrocellulose-filter trapping of 3H-labeled heparin bound to TTR peptides; type: binding; settings: pH 5.0, 3H-labeled heparin 1500 cpm
Method: (A) TTR amino acid sequence where histidine “(+)” and other basic amino acids “+” are marked. (B) Equal mole of TTR-peptides or full-length protein (with or without acidic dissociation), were incubated with ^3H-labeled heparin (1500 cpm) at pH 5.0. The amount of ^3H-labeled heparin bound to the peptides was analyzed using a nitrocellulose-filter trapping method.
To characterize the TTR-heparin interaction, we incubated TTR and its peptide fragments with ^3H-heparin. The binding was analyzed by a nitrocellulose-filter trapping method (18). […] This heparin-binding peptide contains three basic amino acids, including a histidine that likely contributed to the pH dependency seen in the TTR-heparin/HS interaction. This selective binding propy was further verified by SPR analysis (FIG. 9).

[2] = SPR analysis of TTR peptides binding to immobilized heparin; settings: pH 5.0, peptide conc. 25 μg/ml, flow rate 20 μl/min
Method: Heparin was immobilized onto a Biacore sensor chip (CM5) using the surface thiol coupling kit (GE Healthcare). Peptides derived from regions on the TTR sequence (FIG. 5A) containing a histidine residue (24-35, 51-61 and 84-94), were allowed to interact with the heparin surface at pH 5.0 (peptide conc. 25 μg/ml; flow rate 20 μl/min).

[3] = molecular target: T1, dissociated TTR immobilized onto a Biacore sensor chip (Homo sapiens, UniProt P02766); assay: Surface plasmon resonance (Biacore), heparin/HS over immobilized TTR; type: binding
T1 construct: made in house; host or cells: bacteria
Method: (A) Dissociated TTR was immobilized onto a Biacore sensor chip and heparin (10 μM) was allowed to interact with the immobilized TTR in neutral or in mildly acidic conditions. (B) HS II (10 μM) binding to TTR at different pH was monitored and the response for each sample is expressed as response units (RU). […] (C) TTR (50 μM) incubated with heparin or HS II for 7 days at pH 5.0 or pH 7.4 was analyzed by ThT fluorescence. Data represent triplicate experiments (means±SEM).
Dissociated TTR was immobilized onto a Biacore sensor chip. Heparin (A), HS II (B) or HS I (C) were injected in a concentration series (ranging from 0.001-70 μM) over the surface at pH 5.0. The response for each concentration was measured at the steady-state region of the curve. The apparent equilibrium dissociation constant (KD) was calculated by plotting the response at steady-state for each concentration versus heparin/HS concentration. The data were fitted to the equation: Response=(Rmax*C)/(KD+C), where C is the concentration of heparin/HS. Two analyte flow rates (20 and 30 μl/min) were tested to assess possible effects of mass transport limitations in the system. […] The presented values are average value of three independent experiments.
(A) Equal amount of dissociated or native protein was immobilized onto a Biacore sensor chip and HS II was allowed to interact with the immobilized TTR at pH 5.0. (B) The values of the HS II-TTR interaction signal were obtained by repeated experiments using three chips with different ligand densities (250-3000 RU). The signals were normalized to a ligand density of 1000 RU and average value is shown. Statistical analysis was done by t test.
Interaction of TTR with heparin/HS was evaluated using a Biosensor system (Biacore2000). TTR was dissociated in acidic buffer (pH 2.7) and then diluted into a 50 mM NaAc (pH 5.0) coupling buffer and immobilized onto a CM5 sensor chip to a level of 3000 RU using an amine-coupling kit (GE Healthcare, Uppsala, Sweden). For binding and kinetic analysis, heparin or HS was injected (concentrations indicated in figure legend) over the surface and equilibrated at different pH. The surface was regenerated after each sample with a 30 s wash step of 0.5 M NaCl. All obtained sensorgrams were double-reference subtracted in Biacore evaluation software 2.0, using the reference flow cell and buffer blank sample.

| Compound | Binding of 3H-labeled heparin to the peptide [1] | Interaction of the peptide with the heparin surface (SPR) [2] | Binding to surface immobilized with dissociated TTR (SPR) ([3]; Thioflavin T 50 μM) | Binding to surface immobilized with aggregated TTR (SPR) ([3]; Thioflavin T injection) |
| --- | --- | --- | --- | --- |
| PAINVAVHVFRK [peptide of aa 24-35, Synthesized peptide of aa 24-35 of TTR] | bound to heparin | interacted with heparin |  |  |
| 24-35 peptide containing the V30M mutation: TTR 24-35 peptide with the V30M mutation associated with familial amyloid neuropathy (PAINVAMHVFRK; UniProt P02766 44-55, looked up, variant V30M) | substantially lower binding to heparin compared to the WT peptide |  |  |  |
| Cc1ccc2c(c1)sc(-c1ccc(N(C)C)cc1)[n+]2C.[Cl-] [Thioflavin T] |  |  | no binding | significant binding |
